Assay [1] has as its target T1, human LXRβ (Homo sapiens, UniProt P55055).
T1 construct: made in house; host or cells: E. coli
T1 sequence (P55055 1-460): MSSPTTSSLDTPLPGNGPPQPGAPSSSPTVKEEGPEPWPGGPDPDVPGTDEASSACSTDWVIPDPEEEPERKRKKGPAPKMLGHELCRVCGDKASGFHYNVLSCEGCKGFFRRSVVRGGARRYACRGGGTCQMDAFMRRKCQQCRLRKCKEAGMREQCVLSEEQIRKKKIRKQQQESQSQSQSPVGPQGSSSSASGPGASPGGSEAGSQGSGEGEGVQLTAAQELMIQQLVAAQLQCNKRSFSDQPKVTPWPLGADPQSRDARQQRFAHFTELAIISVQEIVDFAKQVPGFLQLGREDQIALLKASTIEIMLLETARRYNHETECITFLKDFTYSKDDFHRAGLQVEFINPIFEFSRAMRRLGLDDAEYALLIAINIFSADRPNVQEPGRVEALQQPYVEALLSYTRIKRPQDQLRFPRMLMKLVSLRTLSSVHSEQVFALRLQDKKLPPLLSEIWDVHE
The assay can be described thus: Ligand-binding test procedure for human LXRβ. Particulars: competition with 3H T0901317, biotinylated hLXRβ; read-out: hLXRb binding IC50. As for the experimental part: I. Ligand-Binding Test Procedure for Human LXRβ.
(§1) Buffer: 100 mM KCl, 100 mM TRIS (pH 7.4 at +4° C.), 8.6% glycerol, 0.1 mM PMSF*, 2 mM MTG*, 0.2% CHAPS (* not used in wash buffer)
Receptor source: E. coli extract from cells expressing biotinylated hLXRβ. Extract was made in a similar buffer as above, but with 50 mM TRIS.
(§2) Washed streptavidin and coated flash plates with wash buffer. Diluted receptor extract to give Bmax˜4000 cpm and add to the wells. Wrapped the plates in aluminum foil and stored them at +4° C. over night.
Made a dilution series in DMSO of the test ligands. Made a 5 nM solution of the radioactive tracer in buffer. Mixed 250 μl diluted tracer with 5 μl of the test ligand from each concentration of the dilution series. Washed the receptor-coated flash plates. Added 200 μl per well of the ligand/radiolabel mixture to the receptor-coated flash plates. Wrapped the plates in aluminum foil and incubate at +4° C. over night.
(§3) Aspirated wells, and wash the flashed plates. Sealed the plate. Measured the remaining radioactivity in the plate.

Assay [2] concerns ABCA1 gene. As to the kind of experiment: Quantitative analysis of ABCA1 gene regulation in THP-1 cells. The assay is classed as cell-based. The note with it: Gene regulation by LXR (human), differentiated THP-1 cells; for EC50: 18 hrs, ABCA1 mRNA by real-time PCR; for Agonism ABCA1: LXR agonist reference at 1.0 uM as positive control. As for the experimental part:
III. Quantitative Analysis of ABCA1 Gene Regulation in THP-1 Cells.
The compounds of formula (I) effect on the regulation of the ABCA1 gene was evaluated using the following procedure.
Cell culture: The THP-1 monocytic cell line (ATCC # TIB-202) was obtained from American Type Culture Collection (Manassas, Va.) and cultured in RPMI 1640 medium (Gibco, Carlsbad, Calif.) containing 10% FBS, 2 mM L-glutamine, and 55 uM beta-Mercaptoethanol (BME). Cells were plated in 96-well format at a density of 7.5×10^4 in complete medium containing 50-100 ng/ml phorbal 12,13-dibutyrate (Sigma, St. Louis, Mo.) for three days to induce differentiation into adherent macrophages. Differentiated THP-1 cells were treated with test compounds or ligands dissolved in DMSO (Sigma, D-8779) in culture medium lacking phorbal ester. […] Dose response effects were measured in duplicate, in the range of 0.001 to 30 micromolar concentrations and treated cells were incubated for an additional 18 hrs prior to RNA isolation. Unstimulated cells treated with vehicle were included as negative controls on each plate. An LXR agonist reference, N-(2,2,2-trifluoro-ethyl)-N-[4-(2,2,2-trifluoro-1-hydroxy-1-trifluoromethyl-ethyl)-phenyl]-benzenesulfonamide (Schultz, Joshua R., Genes & Development (2000), 14(22), 2831-2838), was dosed at 1.0 uM and served as a positive control. In antagonist mode, the compound under study is analyzed in the presence of 150 nM GW3965, trifluoromethyl-benzyl)-(2,2-diphenyl-ethyl)-amino]-propoxy]-phenyl)-acetic acid (Collins, J. L., J. Med. Chem. (2000), 45:1963-1966.). Results of antagonist analysis are expressed as % antagonism and IC50 (in μM). RNA isolation and quantitation: Total cellular RNA was isolated from treated cells cultured in 96-well plates using PrepStation 6100 (Applied Biosystems, Foster City, Calif.), according to the manufacturer's recommendations. RNA was resuspended in ribonuclease-free water and stored at −70° C. prior to analysis. RNA concentrations were quantitated with RiboGreen test procedure, #R-11490 (Molecular Probes, Eugene, Oreg.). Gene expression analysis: Gene-specific mRNA quantitation was performed by real-time PCR with the Perkin Elmer Corp. chemistry on an ABI Prism 7700 Sequence detection system (Applied Biosystems, Foster City, Calif.) according to the manufacturer's instructions. Samples (50-100 ng) of total RNA were assayed in duplicate or triplicate in 50 ul reactions using one-step RT-PCR and the standard curve method to estimate specific mRNA concentrations. Sequences of gene-specific primer and probe sets were designed with Primer Express Software (Applied Biosystems, Foster City, Calif.). The human ABCA1 primer and probe sequences are: forward, […], reverse, […], and probe, 6FAM-[…]-TAMRA. RT and PCR reactions were performed according to PE Applied Biosystem's protocol for Taqman Gold RT-PCR or Qiagen's protocl for Quantitect probe RT-PCR. Relative levels of ABCA1 mRNA are normalized using GAPDH mRNA or 18S rRNA probe/primer sets purchased commercially (Applied Biosystems, Foster City, Calif.).
Mean, standard deviation and statistical significance of duplicate evaluations of RNA samples were assessed using ANOVA, one-way analysis of variance using SAS analysis.

For assay [3], the target named is T2, human LXRα (Homo sapiens, UniProt Q13133).
T2 construct: made in house; host or cells: E. coli
T2 sequence (Q13133 1-447): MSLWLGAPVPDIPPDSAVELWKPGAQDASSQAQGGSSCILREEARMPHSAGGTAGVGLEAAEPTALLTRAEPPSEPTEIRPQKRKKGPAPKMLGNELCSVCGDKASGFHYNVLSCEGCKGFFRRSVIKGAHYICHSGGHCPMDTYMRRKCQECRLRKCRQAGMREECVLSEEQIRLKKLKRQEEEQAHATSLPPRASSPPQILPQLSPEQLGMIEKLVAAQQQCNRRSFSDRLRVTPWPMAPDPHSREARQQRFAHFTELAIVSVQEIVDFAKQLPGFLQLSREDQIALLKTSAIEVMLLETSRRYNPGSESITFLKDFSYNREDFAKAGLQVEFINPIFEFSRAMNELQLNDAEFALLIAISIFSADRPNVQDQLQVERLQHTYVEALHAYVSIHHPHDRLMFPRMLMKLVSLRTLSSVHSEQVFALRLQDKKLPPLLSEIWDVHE
As to the kind of experiment: Ligand-binding test procedure for human LXRα. Particulars: competition with 3H T0901317, biotinylated hLXRα; read-out: hLXRa binding IC50. As for the experimental part: II. Ligand-Binding Test Procedure for Human LXRα.
as §1
Receptor source: E. coli extract from cells expressing biotinylated hLXRα. Extract was made in a similar buffer as above, but with 50 mM TRIS.
as §2
Made a dilution series in DMSO of the test ligands. Made a 5 nM solution of the radioactive tracer in buffer. Mixed […] diluted tracer with 5 μl of the test ligand from each concentration of the dilution series. Washed the receptor-coated flash plates. Added 200 μl per well of the ligand/radiolabel mixture to the receptor-coated flash plates. Wrapped the plates in aluminum foil and incubate at +4° C. over night.
as §3

Consider three compounds from patent US20100324073A1, “Pyrazolo [1,5-A] Pyrimidine Compounds” (Wyeth LLC, priority 2007, published 2010).

One may read the IC50 as the concentration that inhibits the measured activity by half. In general, EC50 refers to the concentration giving half of the maximal effect. Read a low EC50 as an effect from little substance. `CCS(=O)(=O)c1cccc(Oc2cccc(-c3c(Cc4ccccc4)nn4c(C(F)(F)F)ccnc34)c2)c1` [Example 6, 2-benzyl-3-(3-(3-(ethylsulfonyl)phenoxy)phenyl)-7-(trifluoromethyl)pyrazolo[1,5-a]pyrimidine]: the IC50 in assay [1] is 5.3 nM. For the same compound, in assay [2], the response was half-maximal at 275 nM (EC50) and the “Agonism ABCA1” value is given as 101%. Further, in assay [3], the IC50 was determined as 98.2 nM.
For `O=S(=O)(CCCO)c1cccc(Oc2cccc(-c3c(Cc4ccccc4)nn4c(C(F)(F)F)ccnc34)c2)c1` [Example 7, 3-(3-(3-(2-benzyl-7-(trifluoromethyl)pyrazolo[1,5-a]pyrimidin-3-yl)phenoxy)phenylsulfonyl)propan-1-ol] the same measures were 3.4 nM, 724 nM, 109% and 87.2 nM.
On the same counts, the results for `CS(=O)(=O)c1cccc(Oc2cccc(-c3c(Cc4ccccc4)nn4c(C(F)(F)F)ccnc34)c2)c1` [Example 5, 2-benzyl-3-{3-[3-(methylsulfonyl)phenoxy]phenyl}-7-(trifluoromethyl)pyrazolo[1,5-a]pyrimidine] are 2.4 nM, 115 nM, 98% and 61.6 nM.
